Data from patent US20240246918A1, “COMPOUNDS AND COMPOSITIONS AS EIF4E INHIBITORS AND THE USES THEREOF” (Ribometrix, Inc., priority 2022, published 2024).

Experiments:
[1] = tested on: COLO 205 colorectal tumor cells; assay: Tumor cell viability inhibition assay (CellTiter-Glo 2.0, 72 hours); format: cell-based; settings: COLO 205 cell viability
Procedure, shortened: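 COLO 205 cells (1500/well, RPMI-1640 + 10% FBS) exposed for 72 h to an 11-point, 4-fold dilution series; cellular ATP read by CellTiter-Glo 2.0 luminescence. Data normalized to DMSO and maximum-inhibition controls; IC50 from 4-parameter curve fit.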

human eIF4E protein = target: T1, human eIF4E protein (Homo sapiens, UniProt P06730); assay: Biochemical competitive binding assay (TR-FRET competition, EDA-m7GDP-ATTO-647N probe); settings: read-out: hEIF4E TR-FRET IC50
T1 construct: purchased Novus NBP-45314
Procedure, shortened: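 His-tagged human eIF4E (4 nM) was preincubated with Eu-anti-His antibody (2.5 nM) and added to compound (11-point, 4-fold dilutions) for 15 min. Then 5 nM EDA-m7GDP-ATTO-647N was added for 15 min, in HEPES pH 7.5, 100 mM KCl. The 665/620 TR-FRET ratio was normalized to controls, and IC50 was taken from 4-parameter fits.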

T1 sequence (P06730 whole entry): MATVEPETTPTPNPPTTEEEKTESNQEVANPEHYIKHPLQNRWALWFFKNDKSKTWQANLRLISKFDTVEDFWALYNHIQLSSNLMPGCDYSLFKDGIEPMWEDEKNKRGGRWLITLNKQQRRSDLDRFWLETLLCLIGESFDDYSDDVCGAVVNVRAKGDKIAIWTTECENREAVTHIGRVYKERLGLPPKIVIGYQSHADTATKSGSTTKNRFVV

Row | Structure (SMILES) | IC50 [1] [µM] | IC50 (human eIF4E protein) [µM] | IC50 ([1]; Homo sapiens, COLO 205, 72 h) [µM]
1 | Cc1cc(-c2cc(Cl)ccc2OCCn2c(C)nc3c(c2=O)CC(N2CCC(CC(F)(F)F)CC2)CC3(C)C)c2scc(C(=O)O)c2n1 (single isomer, unassigned) [Compound 492] | – | < 0.1 | < 5
2 | Cc1cc(-c2cc(Cl)ccc2OCCn2c(C)nc3c(c2=O)C[C@@H](N(C)[C@H]2CC[C@](C)(O)CC2)CC3)c2scc(C(=O)O)c2n1 (single isomer, unassigned) [Compound 226] | – | < 0.1 | > 20
3 | Cc1cc(-c2cc(Cl)ccc2OCCn2c(C)nc3c(c2=O)C[C@H](N2CCC(C(F)(F)F)CC2)CC3)c2scc(C(=O)O)c2n1 (single isomer, unassigned) [Compound 373] | – | < 0.1 | < 5
4 | Cc1cc(-c2cc(Cl)ccc2OCCn2c(C)nc3c(c2=O)C[C@H](N2CCC[C@@H](c4ccn(C)n4)C2)CC3)c2scc(C(=O)O)c2n1 (single isomer, unassigned) [Compound 447] | – | < 0.1 | 5 to 20
5 | COC1(C(F)(F)F)CC2CCC(C1)N2[C@@H]1CCc2nc(C)n(CCOc3ccc(Cl)cc3-c3cc(C)nc4c(C(=O)O)csc34)c(=O)c2C1 (single isomer, unassigned) [Compound 504] | – | < 0.1 | < 5
6 | Cc1cc(-c2cc(Cl)ccc2OCCn2c(C)nc3c(c2=O)C[C@@H](N2CCC[C@@H](C(F)F)C2)CC3)c2scc(C(=O)O)c2n1 (single isomer, unassigned) [Compound 100] | – | < 0.1 | < 5
7 | Cc1cc(-c2cc(Cl)ccc2OCCn2c(C)nc3c(c2=O)C[C@@H](N2CC[C@@H](OC(F)(F)F)C(F)(F)C2)CC3)c2scc(C(=O)O)c2n1 (single isomer, unassigned) [Compound 405] | – | < 0.1 | 5 to 20
8 | Cc1cc(-c2cc(Cl)ccc2OCCn2c(C)nc3c(c2=O)CC(N2CCC(OC(F)(F)F)CC2)CC3(C)C)c2scc(C(=O)O)c2n1 (single isomer, unassigned) [Compound 443, 7-(5-chloro-2-(2-(2,8,8-trimethyl-4-oxo-6-(4-(trifluoromethoxy)piperidin-1-yl)-5,6,7,8-tetrahydroquinazolin-3(4H)-yl)ethoxy)phenyl)-5-methylthieno[3,2-b]pyridine-3-carboxylic acid] | < 5 | < 0.1 | –
9 | Cc1cc(-c2cc(Cl)ccc2OCCn2c(C)nc3c(c2=O)CC(N2CCC4(CCN(CC(F)(F)F)C4)C2)CC3)c2scc(C(=O)O)c2n1 (single isomer, unassigned) [Compound 505] | – | < 0.1 | < 5
10 | COC1(C(F)(F)F)CCN([C@H]2CCc3nc(C)n(CCOc4ccc(Cl)cc4-c4cc(C)nc5c(C(=O)O)csc45)c(=O)c3C2)CC1 (single isomer, unassigned) [Compound 451] | – | < 0.1 | < 5
11 | Cc1cc(-c2cc(Cl)ccc2OCCn2c(C)nc3c(c2=O)C[C@@H](N2CCC(n4cccn4)CC2)CC3)c2scc(C(=O)O)c2n1 (single isomer, unassigned) [Compound 474] | – | < 0.1 | < 5
12 | COC1CCN([C@@H]2Cc3c(nc(C)n(CCOc4ccc(Cl)cc4-c4cc(C)nc5c(C(=O)O)csc45)c3=O)C3(CC3)C2)CC1 (single isomer, unassigned) [Compound 372] | – | < 0.1 | < 5
13 | Cc1cc(-c2cc(Cl)ccc2OCCn2c(C)nc3c(c2=O)C[C@@H](N2CCC[C@@H](C(F)(F)F)C2)CC3)c2scc(C(=O)O)c2n1 (single isomer, unassigned) [Compound 383] | – | < 0.1 | 5 to 20
14 | Cc1csc([C@@H]2CCCN([C@@H]3CCc4nc(C)n(CCOc5ccc(Cl)cc5-c5cc(C)nc6c(C(=O)O)csc56)c(=O)c4C3)C2)n1 (single isomer, unassigned) [Compound 484] | – | < 0.1 | < 5
15 | Cc1nc2c(c(=O)n1CC#Cc1ccc(Cl)cc1-c1ccnc3c(C(=O)O)csc13)C[C@@H](N1CCC[C@]3(C1)CC3(F)F)CC2 (single isomer, unassigned) [Compound 537, 7-(5-chloro-2-(3-(6-(1,1-difluoro-5-azaspiro[2.5]octan-5-yl)-2-methyl-4-oxo-5,6,7,8-tetrahydroquinazolin-3(4H)-yl)prop-1-yn-1-yl)phenyl)thieno[3,2-b]pyridine-3-carboxylic acid] | – | < 0.1 | 5 to 20
16 | Cc1cc(-c2cc(Cl)ccc2OCCn2c(C)nc3c(c2=O)C[C@H](N2CC[C@H](OC(F)(F)F)C(F)(F)C2)CC3)c2scc(C(=O)O)c2n1 (single isomer, unassigned) [Compound 404] | – | < 0.1 | 5 to 20
17 | Cc1cc(-c2cc(Cl)ccc2OCCn2c(C)nc3c(c2=O)CC(N2CCC4(CC2)CNCCO4)CC3)c2scc(C(=O)O)c2n1 (single isomer, unassigned) [Compound 528] | > 20 | < 0.1 | –
18 | Cc1cc(-c2cc(Cl)ccc2OCCn2c(C)nc3c(c2=O)CC(N2CCC(C(F)(F)F)CC2)CC3)c2scc(C(=O)NS(C)(=O)=O)c2n1 (single isomer, unassigned) [Compound 432] | – | < 0.1 | < 5
19 | Cc1cc(-c2cc(Cl)ccc2OCCn2c(C)nc3c(c2=O)C[C@@H](N(C)C[C@H]2C[C@](C)(O)C2)CC3)c2scc(C(=O)O)c2n1 (single isomer, unassigned) [Compound 211] | – | < 0.1 | > 20
20 | Cc1cc(-c2cc(Cl)ccc2OCCn2c(C)nc3c(c2=O)C[C@@H](N2Cc4cc(F)c(F)cc4C2)CC3)c2scc(C(=O)O)c2n1 (single isomer, unassigned) [Compound 533] | – | < 0.1 | < 5
21 | Cc1cc(-c2cc(Cl)ccc2OCCn2c(C)nc3c(c2=O)C[C@H](N2CCC[C@H](c4ncccc4F)C2)CC3)c2scc(C(=O)O)c2n1 (single isomer, unassigned) [Compound 464] | – | < 0.1 | < 5
22 | Cc1cc(-c2cc(Cl)ccc2OCCn2c(C)nc3c(c2=O)C[C@@H](N2CC[C@@H](OC(F)(F)F)C(C)(C)C2)CC3)c2scc(C(=O)O)c2n1 (single isomer, unassigned) [Compound 393] | – | < 0.1 | 5 to 20
23 | Cc1cc(-c2cc(Cl)ccc2OCCn2c(C)nc3c(c2=O)C[C@H](N2CCO[C@H](COC(F)(F)F)C2)CC3)c2scc(C(=O)O)c2n1 (single isomer, unassigned) [Compound 478] | – | < 0.1 | < 5

Now from value to molecule:

Row | IC50 [1] [µM] | IC50 (human eIF4E protein) [µM] | IC50 ([1]; Homo sapiens, COLO 205, 72 h) [µM] | Structure (SMILES)
24 | < 5 | < 0.1 | – | Cc1nc2c(c(=O)n1CC#Cc1ccc(Cl)cc1-c1ccnc3c(C(=O)NS(C)(=O)=O)csc13)CC(N1CCC(OC(F)(F)F)CC1)CC2 (single isomer, unassigned) [Compound 601]
25 | – | < 0.1 | 5 to 20 | Cc1cc(-c2cc(Cl)ccc2OCCn2c(C)nc3c(c2=O)C[C@H](N2CCCC[C@H]2c2cccc(F)c2)CC32CC2)c2scc(C(=O)O)c2n1 (single isomer, unassigned) [Compound 626, 7-(5-chloro-2-(2-(6′-(2-(3-fluorophenyl)piperidin-1-yl)-2′-methyl-4′-oxo-6′,7′-dihydro-4′H-spiro[cyclopropane-1,8′-quinazolin]-3′(5′H)-yl)ethoxy)phenyl)-5-methylthieno[3,2-b]pyridine-3-carboxylic acid]
26 | – | < 0.1 | < 5 | Cc1cc(-c2cc(Cl)ccc2OCCn2c(C)nc3c(c2=O)C[C@H](N2CCCC[C@H]2c2nccs2)CC3)c2scc(C(=O)O)c2n1 (single isomer, unassigned) [Compound 546]
27 | – | < 0.1 | > 20 | Cc1cc(-c2cc(Cl)ccc2OCCn2c(C)nc3c(c2=O)CC(CN)(N2CCC(OC(F)(F)F)CC2)CC3)c2scc(C(=O)O)c2n1 (single isomer, unassigned) [Compound 622]
28 | – | 0.1 to 0.5 | 5 to 20 | COC1CCN(C2(C)CCc3nc(C)n(CCOc4ccc(Cl)cc4-c4cc(C)nc5c(C(=O)O)csc45)c(=O)c3C2)CC1(C)C (single isomer, unassigned) [Compound 559]
29 | – | < 0.1 | < 5 | Cc1cc(-c2cc(Cl)ccc2OCCn2c(C)nc3c(c2=O)C[C@](C)(N2CCC[C@]4(C2)CC4(F)F)CC3)c2scc(C(=O)O)c2n1 (single isomer, unassigned) [Compound 553]
30 | – | < 0.1 | < 5 | Cc1cc(-c2cc(Cl)ccc2OCCn2c(C)nc3c(c2=O)C[C@@H](N2CCC[C@@H](C(F)F)C2)CC32CC2)c2scc(C(=O)O)c2n1 (single isomer, unassigned) [Compound 609]
31 | – | < 0.1 | < 5 | Cc1cc(-c2cc(Cl)ccc2OCCn2c(C)nc3c(c2=O)C[C@H](N2CCC[C@H](C(F)F)C2)CC32CC2)c2scc(C(=O)O)c2n1 (single isomer, unassigned) [Compound 617]
32 | – | < 0.1 | < 5 | Cc1cc(-c2cc(Cl)ccc2OCCn2c(C)nc3c(c2=O)C[C@@H](N2CCCC(F)(F)CC2)CC32CC2)c2scc(C(=O)O)c2n1 (single isomer, unassigned) [Compound 544]
33 | < 5 | < 0.1 | – | COC1CCN(C2(C)CCc3nc(C)n(CCOc4ccc(Cl)cc4-c4cc(C)nc5c(C(=O)O)csc45)c(=O)c3C2)CC1(C)C (single isomer, unassigned) [Compound 565]
34 | – | < 0.1 | < 5 | CO[C@@H](C1CCN([C@H]2CCc3nc(C)n(CCOc4ccc(Cl)cc4-c4cc(C)nc5c(C(=O)O)csc45)c(=O)c3C2)CC1)C(F)(F)F (single isomer, unassigned) [Compound 562]
35 | < 5 | < 0.1 | – | Cc1cc(-c2cc(Cl)ccc2OCCn2c(C)nc3c(c2=O)CC(C)(N2CCC4(CC2)CC4(F)F)CC3)c2scc(C(=O)O)c2n1 (single isomer, unassigned) [Compound 557]
